# Assays:
# Assay in all cases: MIC, agar dilution
# Type in all cases: cell-based
# E. faecalis 12201 = conditions: E. faecalis 12201
# [1] = test system: S. aureus IVES 2943 (meth. resistant); conditions: S. aureus IVES 2943 (meth. resistant)
# [2] = test system: S. aureus ATCC 29213 (Sensitive); conditions: S. aureus ATCC 29213 (Sensitive)
# [3] = test system: S. aureus UBMS 88-5 (tetM); conditions: S. aureus UBMS 88-5 (tetM)
# [4] = test system: S. aureus UBMS 90-3 (Sensitive); conditions: S. aureus UBMS 90-3 (Sensitive)
# E. coli UBMS 88-1 (tetB) = conditions: E. coli UBMS 88-1 (tetB)
# [5] = test system: S. aureus UBMS 88-7 (tetK); conditions: S. aureus UBMS 88-7 (tetK)
# [6] = test system: S. aureus UBMS 88-4 (Sensitive); conditions: S. aureus UBMS 88-4 (Sensitive)
# E. faecalis ATCC 29212 = conditions: E. faecalis ATCC 29212
# [7] = test system: E. coli UBMS 89-2 (Sensitive); conditions: E. coli UBMS 89-2 (Sensitive)
# E. coli UBMS 89-1 (tetM) = conditions: E. coli UBMS 89-1 (tetM)
# [8] = test system: E. coli UBMS 88-2 (Sensitive); conditions: E. coli UBMS 88-2 (Sensitive)
# [9] = test system: S. aureus Smith (Sensitive); conditions: S. aureus Smith (Sensitive)
# [10] = test system: S. aureus IVES 1983 (meth. resistant); conditions: S. aureus IVES 1983 (meth. resistant)
# [11] = test system: S. haemolyticus AVAH 88-3; conditions: S. haemolyticus AVAH 88-3
# [12] = test system: S. aureus UBMS 90-2 (tetM); conditions: S. aureus UBMS 90-2 (tetM)
# E. coli ATCC 25922 = conditions: E. coli ATCC 25922
# [13] = test system: S. aureus UBMS 90-1 (tetM); conditions: S. aureus UBMS 90-1 (tetM)
Compound,MIC (E. faecalis 12201),MIC [1],MIC [2],MIC [3],MIC [4],MIC (E. coli UBMS 88-1 (tetB)),MIC [5],MIC [6],MIC (E. faecalis ATCC 29212),MIC [7],MIC (E. coli UBMS 89-1 (tetM)),MIC [8],MIC [9],MIC [10],MIC [11],MIC [12],MIC (E. coli ATCC 25922),MIC [13]
"CN(C)c1cc(NC(=O)CO)c(O)c2c1CC1CC3C(N(C)C)C(O)=C(C(N)=O)C(=O)C3(O)C(O)=C1C2=O (stereo not drawn) [L, 7-(Dimethylamino)-9-[(hydroxyacetyl)amino]-6-demethyl-6-deoxytetracycline]",4 µg/mL,>32 µg/mL,0.5 µg/mL,4 µg/mL,1 µg/mL,>32 µg/mL,>32 µg/mL,4 µg/mL,2 µg/mL,>32 µg/mL,>32 µg/mL,>32 µg/mL,0.5 µg/mL,>32 µg/mL,16 µg/mL,2 µg/mL,32 µg/mL,8 µg/mL
"CN(C)c1cc(NC(=O)CN)c(O)c2c1CC1CC3C(N(C)C)C(O)=C(C(N)=O)C(=O)C3(O)C(O)=C1C2=O.O=C(O)C(F)(F)F (stereo not drawn) [M, 9-[(Aminoacetyl)amino]-7-(dimethylamino)-6-demethyl-6-deoxytetracycline mono(trifluoroacetate)]",0.25 µg/mL,>32 µg/mL,0.5 µg/mL,1 µg/mL,0.5 µg/mL,2 µg/mL,>32 µg/mL,1 µg/mL,0.25 µg/mL,2 µg/mL,2 µg/mL,2 µg/mL,1 µg/mL,>32 µg/mL,1 µg/mL,0.5 µg/mL,2 µg/mL,2 µg/mL
"CN(C)c1cc(NC(=O)c2cccc(C(F)(F)F)c2)c(O)c2c1CC1CC3C(N(C)C)C(O)=C(C(N)=O)C(=O)C3(O)C(O)=C1C2=O (stereo not drawn) [U, 7-(Dimethylamino)-9-[[3-(trifluoromethyl)benzoyl)amino]-6-demethyl-6-deoxytetracycline]",1 µg/mL,1 µg/mL,0.5 µg/mL,1 µg/mL,0.5 µg/mL,>32 µg/mL,1 µg/mL,0.5 µg/mL,1 µg/mL,≧32 μg/ml,>32 µg/mL,>32 µg/mL,1 µg/mL,1 µg/mL,1 µg/mL,1 µg/mL,≧32 μg/ml,1 µg/mL
"CN(C)c1cc(NC(=O)c2ccc([N+](=O)[O-])cc2)c(O)c2c1CC1CC3C(N(C)C)C(O)=C(C(N)=O)C(=O)C3(O)C(O)=C1C2=O (stereo not drawn) [V, 7-(Dimethylamino)-9-[(4-nitrobenzoyl)amino]-6-demethyl-6-deoxytetracycline]",4 µg/mL,4 µg/mL,0.25 µg/mL,2 µg/mL,0.5 µg/mL,>32 µg/mL,4 µg/mL,2 µg/mL,4 µg/mL,>32 µg/mL,>32 µg/mL,>32 µg/mL,0.5 µg/mL,8 µg/mL,4 µg/mL,1 µg/mL,>32 µg/mL,2 µg/mL
"CN(C)c1ccc(C(=O)Nc2cc(N(C)C)c3c(c2O)C(=O)C2=C(O)[C@]4(O)C(=O)C(C(N)=O)=C(O)[C@@H](N(C)C)[C@@H]4C[C@@H]2C3)cc1 [W, 7-(Dimethylamino)-9-[[(4-dimethylamino)benzoyl)amino)-6-demethyl-6-deoxytetracycline]",16 µg/mL,8 µg/mL,2 µg/mL,32 µg/mL,8 µg/mL,>32 µg/mL,16 µg/mL,8 µg/mL,8 µg/mL,>32 µg/mL,>32 µg/mL,>32 µg/mL,4 µg/mL,8 µg/mL,16 µg/mL,8 µg/mL,>32 µg/mL,16 µg/mL
"CN(C)c1cc(NC(=O)c2ccc(N)cc2)c(O)c2c1CC1CC3C(N(C)C)C(O)=C(C(N)=O)C(=O)C3(O)C(O)=C1C2=O.O=S(=O)(O)O (stereo not drawn) [X, 9-[(4-Aminobenzoyl)amino)-7-(dimethylamino)-6-demethyl-6-deoxytetracycline sulfate]",32 µg/mL,>32 µg/mL,0.5 µg/mL,8 µg/mL,1 µg/mL,>32 µg/mL,8 µg/mL,1 µg/mL,8 µg/mL,>32 µg/mL,>32 µg/mL,>32 µg/mL,1 µg/mL,>32 µg/mL,8 µg/mL,8 µg/mL,>32 µg/mL,16 µg/mL
"CN(C)c1cc(NC(=O)c2ccco2)c(O)c2c1CC1CC3C(N(C)C)C(O)=C(C(N)=O)C(=O)C3(O)C(O)=C1C2=O (stereo not drawn) [Y, 7-(Dimethylamino)-9-((2-furanylcarbonyl)amino)-6-demethyl-6-deoxytetracycline]",32 µg/mL,>32 µg/mL,0.5 µg/mL,16 µg/mL,2 µg/mL,>32 µg/mL,>32 µg/mL,4 µg/mL,8 µg/mL,>32 µg/mL,>32 µg/mL,>32 µg/mL,2 µg/mL,>32 µg/mL,>32 µg/mL,8 µg/mL,>32 µg/mL,32 µg/mL
"CN(C)c1cc(NC(=O)c2cccs2)c(O)c2c1CC1CC3C(N(C)C)C(O)=C(C(N)=O)C(=O)C3(O)C(O)=C1C2=O (stereo not drawn) [Z, 7-(Dimethylamino)-9-[(2-thienylcarbonyl)amino]-6-demethyl-6-deoxytetracycline]",8 µg/mL,32 µg/mL,0.5 µg/mL,8 µg/mL,2 µg/mL,>32 µg/mL,32 µg/mL,8 µg/mL,8 µg/mL,>32 µg/mL,>32 µg/mL,>32 µg/mL,2 µg/mL,32 µg/mL,8 µg/mL,4 µg/mL,32 µg/mL,4 µg/mL
"[7S-(7α,10aα) ]-C(9-(Aminocarbonyl)-7-(dimethylamino)-5,5a,6,6a,7,10,10a,12-octahydro-1,8,10a,11-tetrahydroxy-10,12-dioxo-2-naphthacenyl]amino]oxoacetic acid ethyl ester",32 µg/mL,32 µg/mL,0.25 µg/mL,32 µg/mL,1 µg/mL,>32 µg/mL,8 µg/mL,2 µg/mL,32 µg/mL,>32 µg/mL,>32 µg/mL,>32 µg/mL,2 µg/mL,>32 µg/mL,4 µg/mL,32 µg/mL,32 µg/mL,>32 µg/mL

# — USRE40086E1, “Method for treating bacterial infection with novel 7-substituted-9-substituted amino 6-demethyl-6-deoxytetracyclines” (Wyeth Holdings Corporation, priority 1991, dated 2008)
